{"source": "patent US20180369166A1", "about": "“GARCINOL COMPOSITIONS FOR THERAPEUTIC MANAGEMENT OF ENDOPLASMIC RETICULUM STRESS” (priority 2017, published 2018)", "key": {"[1]": {"test_system": "Human Liver cell line (HepG2)", "assay": "Thapsigargin induced protein aggregation in human liver cells (thioflavin staining, flow cytometry)", "format": "cell-based", "conditions": "10 μg/ml, 1 μM Thapsigargin, FIGS. 7a and 7b", "method": "(§1) HepG2—human liver cell line, primary mouse hepatocytes. Min6—Mouse pancreatic beta cell line, 3T3 L1—mouse preadipocytes wee used for the experiments. Cells were maintained in DMEM containing 25 mM glucose with 10% heat-inactivated fetal calf serum with antibiotics at 37° C. and 5% CO2. When the cells were 70-80% confluent, they were trypsinized, washed and seeded in 96 well plates at a density of 5×10^3 cells per well. Stress was induced by Thapsigargin(1 uM) for 4 hours, glucose (50 and 100 mM) and alcohol (1000 mM) or paracetamol (4 mM) for 72 hours. Garcinol was added along with stressor as prophylactic treatment. As a therapeutic treatment, cells were exposed to stress agent 24 hours following which Garcinol was added to the cells. Protection was assessed by SRB assay after 72 hours of treatment\nIRE1α phosophorylation levels can be assessed by measuring spliced. XBP-1 product by RT PCR. PERK activation is measured by its phosphorylation levels or by measuring the ATF4 mRNA levels. Activation of ATF4 leads to increased transcription of a network of genes, including those encoding ER chaperones, such as BiP/GRP78.\nEffect of Garcinol on Thapsigargin induced ER stress in human liver cells was also evaluated. […] Treated and untreated cells were analysed by Flow cytometry and RT PCR."}, "[2]": {"test_system": "primary mouse hepatocytes", "assay": "Thapsigargin induced protein aggregation in primary mouse hepatocytes (thioflavin staining)", "format": "cell-based", "conditions": "10 μg/ml; 1 μM Thapsigargin; FIG. 7c"}, "[3]": {"test_system": "HepG2 Cells", "assay": "Alcohol induced toxicity in HepG2 cells (SRB assay)", "format": "cell-based, human", "conditions": "10 μg/ml; 1000 mM Ethanol for 72 hours; FIG. 6", "method": "as §1\nFor evaluating alcohol induced toxicity, HepG2 Cells were exposed to 1000 mM of Ethanol for 72 hours in the presence of different concentrations of Garcinol and protection was assessed by SRB assay. Garcinol conferred hepatoprotection against alcohol induced toxicity by 47% at concentration of 10 μg/ml (FIG. 6)."}}}
{"smiles": "C=C(C)[C@@H](CC=C(C)C)C[C@@]12C[C@@H](CC=C(C)C)C(C)(C)[C@@](CC=C(C)C)(C(=O)C(C(=O)c3ccc(O)c(O)c3)=C1O)C2=O", "note": "[Garcinol]", "values": [{"measurement": "reduction in protein aggregation in human liver cells", "setting": "[1]", "result": 44.4, "unit": "%"}, {"measurement": "reduction in protein aggregation in primary mouse hepatocytes", "setting": "[2]", "result": 70.4, "unit": "%"}, {"measurement": "hepatoprotection against alcohol induced toxicity", "setting": "[3]", "result": 47, "unit": "%"}]}
